# Laboratory results taken from patent US20040147505A1, “Novel heteroaryl-diazabicyclo alkanes as cns-modulators” (priority 2001, published 2004).
# Structures can show the parent of a compound that is named as a salt.
# Target: T1, serotonin transporter (Rattus norvegicus, UniProt P31652)
# T1 construct: Cerebral cortices from male Wistar rats (150-200 g) are homogenized; from tissue; host or cells: rat cerebral cortex synaptosomes (P2 pellet)
# Assay: In vitro inhibition of 3H-5-hydroxytryptamine (3H-5-HT, serotonin) uptake in cortical synaptosomes
# Format: biochemical
# Details: cortical synaptosomes from male Wistar rats; 3H-5-HT 1 nM; 30 min at 37° C.
# Protocol: The activity of the serotonin transporter integral protein can be measured in vitro by synaptosomal uptake of ^3H-5-hydroxytryptamine.
# Preparations are performed at 0-4° C. unless otherwise indicated. […] Monoamine oxidase activity will be inhibited in the presence of pargyline. The homogenate is centrifuged at 1000×g for 10 min. The resulting supernatant is then centrifuged at 27,000×g for 50 min and the supernatant is discarded.
# Non-specific uptake is determined using citalopram (1 μM, final concentration). After incubation the samples are poured directly onto Whatman GF/C glass fibre filters under suction. The filters are then washed three times with 5 ml of ice-cold 0.9% (w/v) NaCl solution. The amount of radioactivity on the filters is determined by conventional liquid scintillation counting. Specific uptake is calculated as the difference between total uptake and non-specific uptake.
# T1 sequence (P31652 whole entry): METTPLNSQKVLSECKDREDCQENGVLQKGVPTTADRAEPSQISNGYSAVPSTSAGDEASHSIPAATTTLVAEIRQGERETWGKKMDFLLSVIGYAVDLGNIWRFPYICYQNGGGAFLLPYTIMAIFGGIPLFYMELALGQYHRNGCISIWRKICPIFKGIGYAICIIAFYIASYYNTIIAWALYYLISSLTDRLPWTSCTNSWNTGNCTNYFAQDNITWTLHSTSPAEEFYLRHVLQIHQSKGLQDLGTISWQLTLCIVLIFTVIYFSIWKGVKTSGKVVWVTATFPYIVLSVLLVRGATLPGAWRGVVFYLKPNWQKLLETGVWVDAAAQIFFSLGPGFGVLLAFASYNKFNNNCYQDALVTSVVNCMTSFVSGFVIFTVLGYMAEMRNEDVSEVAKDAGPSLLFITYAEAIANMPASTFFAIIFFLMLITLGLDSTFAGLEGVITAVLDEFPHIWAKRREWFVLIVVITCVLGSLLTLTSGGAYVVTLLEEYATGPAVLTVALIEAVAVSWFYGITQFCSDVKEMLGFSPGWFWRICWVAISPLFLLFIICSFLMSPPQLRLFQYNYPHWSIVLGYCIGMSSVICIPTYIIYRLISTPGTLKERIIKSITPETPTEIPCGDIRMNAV
row,SMILES,IC50
1,"O=[N+]([O-])c1ccc2nc(N3CC4CC(CN(Cc5ccccc5)C4)C3)ccc2c1 [Compound C6, 3-Benzyl-7-(6-nitro-2-quinolinyl)-3,7-diazabicyclo-[3.3.1]-nonane]",5.7 nM
2,"c1ccc(CN2CC3CC(C2)CN(c2ccc4ccccc4n2)C3)cc1 [Compound C3, 3-Benzyl-7-(2-quinolinyl)-3,7-diazabicyclo-[3.3.1]-nonane]",22 nM

# Test system: not given
# Assay: not given
# Details: not given
row,SMILES,melting point
1,Clc1ccc(N2CC3CC(CN(Cc4ccccc4)C3)C2)nn1 (as salt: fumaric acid salt),204 to 205 °C
2,CN1CC2CC(C1)CN(c1ccc(-c3ccccc3)nn1)C2 (as salt: fumaric acid salt),213.9 to 220.8 °C
3,"c1ccc(CN2CC3CC(C2)CN(c2ccc4ccccc4n2)C3)cc1 (as salt: fumaric acid salt) [Compound C3, 3-Benzyl-7-(2-quinolinyl)-3,7-diazabicyclo-[3.3.1]-nonane]",56.1 to 56.8 °C
4,Clc1cncc(N2CC3CC(CN(Cc4ccccc4)C3)C2)n1 (as salt: fumaric acid salt),183.1 to 183.3 °C
5,"Clc1ccc(N2CC3CNCC(C3)C2)nn1 (as salt: fumaric acid salt) [Compound F1, 3-H-7-(6-Chloro-3-pyridazinyl)-3,7-diazabicyclo-[3.3.1]-nonane]",195.5 to 196.5 °C
6,"O=[N+]([O-])c1ccc2nc(N3CC4CC(CN(Cc5ccccc5)C4)C3)ccc2c1 (as salt: fumaric acid salt) [Compound C6, 3-Benzyl-7-(6-nitro-2-quinolinyl)-3,7-diazabicyclo-[3.3.1]-nonane]",168 to 172 °C
7,"Clc1cncc(N2CC3CNCC(C3)C2)n1 (as salt: fumaric acid salt) [Compound F2, 3-H-7-(6-Chloro-2-pyrazinyl)-3,7-diazabicyclo-[3.3.1]-nonane]",180.3 to 181.9 °C
8,C=CCN1CC2CC(C1)CN(c1ccc(-c3ccccc3)nn1)C2 (as salt: fumaric acid salt),183.5 to 187.6 °C

# Target: T2, nAChRs comprised of α4 and β2 subunits (Rattus norvegicus, UniProt P09483+P12390)
# T2 construct: Cerebral corticies from male Wistar rats (150-250 g) are homogenized; from tissue; host or cells: rat cerebral cortex membrane homogenate
# Assay: In vitro inhibition of 3H-cytisine binding
# Details: cerebral cortex homogenate from male Wistar rats; 3H-cytisine 1 nM; 90 min at 2° C.
# Protocol: The predominant subtype with high affinity for nicotine is comprised of α4 and β2 subunits. nAChRs of the latter type can selectively be labelled by the nicotine agonist ^3H-cytisine.
# Cerebral corticies from male Wistar rats (150-250 g) are homogenized for 20 sec in 15 ml Tris, HCl (50 mM, pH 7.4) containing 120 mM NaCl, 5 mM KCl, 1 mM MgCl2 and 2.5 mM CaCl2 using an Ultra-Turrax homogenizer. The homogenate is centrifuged at 27,000×g for 10 min. The supernatant is discarded and the pellet is resuspended in fresh buffer and centrifuged a second time. The final pellet is resuspended in fresh buffer (35 ml per g of original tissue) and used for binding assays.
# Aliquots of 500 μl homogenate are added to 25 μl of test solution and 25 μl of ^3H-cytisine (1 nM, final concentration), mixed and incubated for 90 min at 2° C. Non-specific binding is determined using (−)-nicotine (100 μM, final concentration). After incubation the samples are added 5 ml of ice-cold buffer and poured directly onto Whatman GF/C glass fibre filters under suction and immediately washed with 2×5 ml ice-cold buffer. The amount of radioactivity on the filters is determined by conventional liquid scintillation counting. Specific binding is total binding minus non-specific binding.
# T2 sequence (P12390 25-500): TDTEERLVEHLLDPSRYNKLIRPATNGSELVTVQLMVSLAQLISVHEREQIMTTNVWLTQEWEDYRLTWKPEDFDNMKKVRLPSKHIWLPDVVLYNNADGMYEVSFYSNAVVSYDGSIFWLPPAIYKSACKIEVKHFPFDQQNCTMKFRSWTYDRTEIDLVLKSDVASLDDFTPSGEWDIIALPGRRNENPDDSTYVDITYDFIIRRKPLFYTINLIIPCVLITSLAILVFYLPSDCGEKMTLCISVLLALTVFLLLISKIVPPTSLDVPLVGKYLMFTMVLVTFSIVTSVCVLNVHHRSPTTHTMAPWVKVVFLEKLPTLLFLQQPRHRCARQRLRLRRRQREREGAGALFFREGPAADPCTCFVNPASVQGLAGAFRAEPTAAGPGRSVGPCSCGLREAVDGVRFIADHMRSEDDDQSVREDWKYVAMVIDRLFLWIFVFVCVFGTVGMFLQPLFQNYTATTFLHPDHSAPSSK
# T2 sequence (P09483 31-630): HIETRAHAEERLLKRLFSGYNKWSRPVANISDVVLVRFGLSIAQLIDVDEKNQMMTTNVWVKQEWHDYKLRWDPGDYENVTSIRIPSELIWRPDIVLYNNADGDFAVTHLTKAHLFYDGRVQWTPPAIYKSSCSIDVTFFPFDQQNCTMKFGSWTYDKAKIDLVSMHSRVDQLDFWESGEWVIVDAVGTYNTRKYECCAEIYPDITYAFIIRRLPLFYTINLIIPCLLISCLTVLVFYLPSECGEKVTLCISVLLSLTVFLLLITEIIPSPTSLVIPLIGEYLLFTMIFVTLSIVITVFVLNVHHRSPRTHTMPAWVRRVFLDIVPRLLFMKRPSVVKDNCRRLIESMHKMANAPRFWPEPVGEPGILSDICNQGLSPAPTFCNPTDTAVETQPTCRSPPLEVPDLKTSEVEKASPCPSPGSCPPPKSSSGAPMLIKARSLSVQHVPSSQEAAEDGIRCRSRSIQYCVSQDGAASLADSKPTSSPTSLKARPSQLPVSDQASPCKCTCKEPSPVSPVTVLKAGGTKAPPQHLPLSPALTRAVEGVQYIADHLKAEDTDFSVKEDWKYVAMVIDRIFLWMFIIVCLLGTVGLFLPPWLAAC
row,SMILES,IC50
1,"Clc1cncc(N2CC3CNCC(C3)C2)n1 [Compound F2, 3-H-7-(6-Chloro-2-pyrazinyl)-3,7-diazabicyclo-[3.3.1]-nonane]",3.4 nM
2,"Clc1ccc(N2CC3CNCC(C3)C2)nn1 [Compound F1, 3-H-7-(6-Chloro-3-pyridazinyl)-3,7-diazabicyclo-[3.3.1]-nonane]",3 nM
